Measured values as given in publication PMC3608651, “A Broad Profile of Co-Dominant Epitopes Shapes the Peripheral Mycobacterium tuberculosis Specific CD8+ T-Cell Immune Response in South African Patients with Active Tuberculosis” (PLoS ONE, 2013).

Legend:
Format in all cases: binding
HLA-B*58:01 = HLA-B*58:01 (Homo sapiens, UniProt P01889, A329T/C349S/D201E/D98Y/E176V/E187L/E204Q/E69T/G107R/I218V/I90N/K202T/L105A/L119I/N104I/N87E/Q89R/Q94S/R106L/R155S/R180L/R86G/S101N/S121R/S35A/S48A/T118I/V127L/V306I/V36M/Y140S/Y91M); settings: percent relative the binding of positive control peptide […]; duplicated experiments; positive binder >40%
HLA-A*24:02 = HLA-A*24:02 (Homo sapiens, UniProt P04439, D101N/D140Y/D185E/E176V/E190D/F33S/G103R/G107R/I119L/I121M/I306V/K335N/L105A/L180Q/L300P/N151K/N90K/Q86E/Q94H/R106L/R138H/R89G/T104I/T345S/V100E/W191G/Y123F); settings: percent relative the binding of positive control peptide […]; duplicated experiments; positive binder >40%
HLA-A*68:01 = HLA-A*68:01 (Homo sapiens, UniProt P04439, A269V/D185E/E176V/E277Q/E87N/F33Y/G231S/I121M/I166T/I218V/L180W/L300P/L318F/N151K/P208A/P217A/Q86R/R169H/T345S); settings: percent relative the binding of positive control peptide […]; duplicated experiments; positive binder >40%
HLA-C*07:01 = HLA-C*07:01 (Homo sapiens, UniProt P10321, K90N/S123Y); settings: percent relative the binding of positive control peptide […]; duplicated experiments; positive binder >40%
HLA-A*30:01 = HLA-A*30:01 (Homo sapiens, UniProt P04439, D140H/D185E/E176W/F33S/G80R/H175R/K168Q/R138E/R41S); settings: percent relative the binding of positive control peptide […]; duplicated experiments; positive binder >40%
HLA-B*07:02 = HLA-B*07:02 (Homo sapiens, UniProt P01889); settings: percent relative the binding of positive control peptide […]; duplicated experiments; positive binder >40%
HLA-A*02:01 = HLA-A*02:01 (Homo sapiens, UniProt P04439, D140Y/D185E/D98H/E176V/E277Q/G131W/G231S/I119V/I121R/I166T/I218V/L300P/L318F/N151K/N90K/P208A/P217A/Q86G/Q94H/R138H/R169H/T345S); settings: percent relative the binding of positive control peptide […]; plate-bound monomer 0.5 µg/ml; duplicated experiments; positive binder >40%
HLA-A*30:02 = HLA-A*30:02 (Homo sapiens, UniProt P04439, D101N/D140H/D185E/E176R/F33S/G80R/H175R/K168Q/Q94H/R138E/R41S/V100E); settings: percent relative the binding of positive control peptide […]; duplicated experiments; positive binder >40%

Substance | Bind B*58:01 (HLA-B*58:01) | Bind A*24:02 (HLA-A*24:02) | Bind A*68:01 (HLA-A*68:01) | Bind C*07:01 (HLA-C*07:01) | Bind A*30:01 (HLA-A*30:01) | Bind B*07:02 (HLA-B*07:02) | Bind A*02:01 (HLA-A*02:01) | Bind A*30:02 (HLA-A*30:02)
LSANRAVKP | 0% | 27% | 0% | 24% | 49% | 11% | 17% | 15%
YHPQQFIYA | 9% | 0% | 0% | 15% | 3% | 0% | 49% | 0%
TMLDHAGDM [Rv0288_10–18m3] |  | 14% |  |  |  |  | 24% | 0%
DLVRAYHSM [Rv0288_64–72m1] |  | 0% | 4% |  |  |  |  | 
YLLDGLRAQ | 0% | 0% | 15% | 0% | 0% | 0% | 111% | 10%
W YYQ SG LSI | 0% | 143% | 0% | 13% | 18% | 6% | 37% | 0%
QNLGAEIAV [Rv0288_26–34m1] | 0% |  |  |  |  |  | 28% | 
PNGTHSWEY | 0% | 0% | 9% | 48% | 0% | 8% | 0% | 77%
WVYCGNGTP | 4% | 0% | 55% | 16% | 0% | 2% | 11% | 0%
GANIPAEFL | 16% | 0% | 0% | 0% | 0% | 0% | 41% | 0%
GGHNAVFNF | 52% | 34% | 0% | 22% | 0% | 19% | 40% | 0%
PTQQIPKLV | 9% | 11% | 0% | 22% | 10% | 5% | 3% | 86%
MGPSLIGLA | 41% | 0% | 0% | 14% | 15% | 5% | 68% | 0%
GKAGCQTYK | 22% | 19% | 72% | 0% | 34% | 9% | 33% | 58%
GNNSPAVYL | 0% | 6% | 3% | 51% | 0% | 0% | 0% | 0%
SSNLKFQDA | 9% | 12% | 14% | 10% | 0% | 0% | 32% | 64%
VRAYHSMSS [Rv0288_66–74m1] |  |  |  | 3% |  |  |  | 
NLGAEIAVE [Rv0288_27–35m1] |  |  |  |  |  |  | 29% | 
YNYPTMLGH [Rv0288_6–14m1] |  |  |  | 0% |  |  |  | 
YNYPAMLDH [Rv0288_6–14m2] |  |  |  | 0% |  |  |  | 
YNYPTMLDH [Rv0288_6–14m3] |  |  |  | 0% |  |  |  | 
TLQNLGAEI [Rv0288_24–32m1] |  | 4% |  |  |  |  | 26% | 
